# In patent US20240002436A1, “RESPIRATORY TREATMENTS” (Hofseth Biocare ASA, priority 2020, published 2024):
# Where a SMILES comes first, the peptide text is derived from it. [ ]: non-standard residue; d: D form. The star is where a group is joined. cisHyp = O=C(O)[C@@H]1C[C@H](O)CN1; NMeL = CN[C@@H](CC(C)C)C(=O)O; NMeV = CN[C@H](C(=O)O)C(C)C; Octanoyl = CCCCCCCC(=O)*
# Legend:
# [1] = system: Allergic Human Purified Peripheral Blood Eosinophils; test: Percent eosinophil apoptosis (Annexin V-FITC, flow cytometry) in allergic human purified peripheral blood eosinophils; format: cell-based; conditions: IL-5 (50 pM), 18 hr incubation; for viability at 10 µg/mL / Percent apoptotic eosinophils (annexin V-positive) at 10 µg/mL: Homo sapiens, Eosinophil, 10 μg/mL test compound, assay SD +/-2.3%; for viability at 10 µg/mL: read-out: Percent live EO cells; for Percent apoptotic eosinophils (annexin V-positive) at 10 µg/mL: read-out: Percent of apoptotic EO cells
# Method: Percent Eosinophil Apoptosis in Allergic Human Purified Peripheral Blood Eosinophils
# Aliquots were removed after 18 hr incubation, washed twice in PBS, and resuspended in binding buffer. The eosinophil cells were stained using the Annexin V-FITC Apoptosis Detection Kit I, (Sigma Aldrich) and immediately analyzed by flow cytometry. Each sample was acquired for 1 min, and the total number of eosinophils gated on a forward scatter/side scatter plot and the percentage of live cells (annexin Vneg) and apoptotic cells (annexin Vpos) was recorded.
# [2] = system: CD11b on PMNL surface; test: CD11b change on PMNL surface stimulated by CCL11 (flow cytometry); format: cell-based; conditions: 30 min pretreatment, 2.5 nm CCL11 30 min at 37° C., CD16 negative cells; for activity at 1 µg/mL: Homo sapiens, PMNL, 0.5 h, 1 μg/mL test compound, assay SD +/-2%, read-out: CD11b change (100% as baseline)
# Method: CD11b Change (100% as Baseline) on PMNL Surface Stimulated by 2.5 nm CCL11
# (PMNL) cells were pretreated with 3 μg/mL ApoA-IV (positive control), 1 μg/mL test compounds, and formulation vehicle (negative control) for 30 minutes and incubated with serial dilutions of CCL 11 for 30 minutes at 37° C. Samples were stained with anti-CD16-PE-Cy5 and anti-CD11b-PE (ICRF44) antibodies. Eosinophils were identified as CD16 negative cells. CD11b upregulation was analyzed by flow cytometry and reported above. (Standard deviation in the assay is +/−2%). See results in Table 2 below.
# [3] = 3 μg/mL ApoA-IV (positive control)
Molecule,viability at 10 µg/mL ([1]; annexin Vneg),Percent apoptotic eosinophils (annexin V-positive) at 10 µg/mL ([1]; annexin Vpos),activity at 1 µg/mL [2],"CD11b change (100% as baseline) [2, 3]","Total percent live and apoptotic EO cells [1, 3]","Percent live EO cells ([1]; 3 μg/mL ApoA-IV (positive control), annexin Vneg)","Percent of apoptotic EO cells ([1]; 3 μg/mL ApoA-IV (positive control), annexin Vpos)"
CC/C=C\C/C=C\C/C=C\C/C=C\C/C=C\CCCC(=O)N(C)[C@@H](Cc1ccccc1)C(=O)N[C@H](C(=O)N(C)[C@H](C(=O)N1C[C@@H](O)C[C@H]1C(=O)N1C(=O)C=CC1=O)C(C)C)C(C)OC(C)=O (stereo partly drawn) [Compound 23a],31.4%,65.6%,,,,,
CC/C=C\C/C=C\C/C=C\C/C=C\C/C=C\CCCC(=O)N(C)[C@@H](CC(C)C)C(=O)N[C@H](C(=O)N(C)[C@H](C(=O)N1C[C@@H](O)C[C@H]1C(=O)N1C(=O)C=C[C@@H]1C)C(C)C)C(C)OC(C)=O (stereo partly drawn) [Compound 27a],39.1%,56.5%,,,,,
CC(C)C[C@@H](C(=O)N[C@H](C(=O)N(C)[C@H](C(=O)N1C[C@@H](O)C[C@H]1C(=O)N1C(=O)C=C[C@@H]1C)C(C)C)C(C)O)N(C)C(=O)C1CCCCC1 (stereo partly drawn) [Compound 13a],51.3%,44%,,,,,
CCCC[C@@H](C)C[C@@H](C)C(=O)N(C)[C@@H](CC(C)C)C(=O)N[C@H](C(=O)N(C)[C@H](C(=O)N1CCC[C@H]1C(=O)N1C(=O)C=C[C@@H]1C)C(C)C)C(C)OC(C)=O (stereo partly drawn) [Compound 3a],51.6%,43.7%,139%,,,,
CC/C=C\C/C=C\C/C=C\C/C=C\C/C=C\CCCC(=O)N(C)[C@@H](Cc1ccccc1)C(=O)N[C@H](C(=O)N(C)[C@H](C(=O)N1CCC[C@H]1C(=O)N1C(=O)C=CC1=O)C(C)C)C(C)OC(C)=O (stereo partly drawn) [Compound 24a],33.8%,64.9%,,,,,
CCCCC(C)CC(C)C(=O)N(C)[C@@H](CC(C)C)C(=O)N[C@@H](COC(C)=O)C(=O)N(C)[C@H](C(=O)N1C[C@@H](O)C[C@H]1C(=O)N1C(=O)C=C[C@@H]1C)C(C)C (stereo partly drawn) [Compound 9a],39.6%,56.4%,127%,,,,
CCCCC(C)CC(C)C(=O)N(C)[C@@H](CC(C)C)C(=O)N[C@H](C(=O)N(C)[C@H](C(=O)N1C[C@@H](O)C[C@H]1C(=O)N1C(=O)C=C[C@@H]1C)C(C)C)C(C)O (stereo partly drawn) [Compound 8a],31.2%,60.1%,122%,,,,
CCCCCCCC(=O)N(C)[C@@H](Cc1ccccc1)C(=O)N[C@H](C(=O)N(C)[C@H](C(=O)N1C[C@@H](O)C[C@H]1C(=O)N1C(=O)C=CC1=O)C(C)C)C(C)OC(C)=O (stereo partly drawn) [Compound 18a],41%,55.5%,,,,,
CCCCC(C)CC(C)C(=O)N(C)CC(=O)N[C@H](C(=O)N(C)CC(=O)N1C[C@@H](O)C[C@H]1C(=O)N1C(=O)C=C[C@@H]1C)C(C)OC(C)=O (stereo partly drawn) [Compound 7a],59.4%,39.9%,149%,,,,
CC/C=C\C/C=C\C/C=C\C/C=C\C/C=C\CCCCCC(=O)N(C)[C@@H](Cc1ccccc1)C(=O)N[C@H](C(=O)N(C)[C@H](C(=O)N1CCC[C@H]1C(=O)N1C(=O)C=CC1=O)C(C)C)C(C)O (stereo partly drawn) [Compound 26a],30%,67.3%,,,,,
CCCCC(C)CC(C)C(=O)N(C)[C@@H](CC(C)C)C(=O)N[C@@H](CS)C(=O)N(C)[C@H](C(=O)N1CCC[C@H]1C(=O)N1C(=O)C=C[C@@H]1C)C(C)C (stereo partly drawn) [Compound 11a],49.7%,44.4%,135%,,,,
CC/C=C\C/C=C\C/C=C\C/C=C\C/C=C\CCCC(=O)N(C)[C@@H](CC(C)C)C(=O)N[C@H](C(=O)N(C)[C@H](C(=O)N1C[C@@H](O)C[C@H]1C(=O)N1C(=O)C=C[C@@H]1C)C(C)C)C(C)O (stereo partly drawn) [Compound 14a],26.6%,67.1%,,,,,
CCCCCCCC(=O)N(C)[C@@H](CC(C)C)C(=O)N[C@H](C(=O)N(C)[C@H](C(=O)N1C[C@@H](O)C[C@H]1C(=O)N1C(=O)C=C[C@@H]1C)C(C)C)C(C)OC(C)=O (stereo partly drawn) [Compound 5a],42.9%,53.1%,129%,,,,
CCCCC(C)CC(C)C(=O)N(C)[C@@H](CC(C)C)C(=O)N[C@H](C(=O)N(C)[C@H](C(=O)N1CCC[C@H]1C(=O)N1C(=O)C=CC1=O)C(C)C)C(C)OC(C)=O (stereo partly drawn) [Compound 12a],52%,42.1%,141%,,,,
CCCCCCCC(=O)N(C)[C@H](C(=O)N[C@H](C(=O)N(C)[C@@H](Cc1c[nH]c2ccccc12)C(=O)N1C[C@@H](O)C[C@H]1C(=O)N1C(=O)C=CC1=O)C(C)OC(C)=O)C(C)CC (stereo partly drawn) [Compound 20a],59.3%,39.4%,,,,,
CC/C=C\C/C=C\C/C=C\C/C=C\C/C=C\CCCC(=O)N(C)[C@@H](CC(C)C)C(=O)N[C@H](C(=O)N(C)[C@H](C(=O)N1C[C@@H](O)C[C@H]1C(=O)N1C(=O)C=CC1=O)C(C)C)C(C)OC(C)=O (stereo partly drawn) [Compound 21a],38.2%,58%,,,,,
CCCCC(C)CC(C)C(=O)N(C)[C@@H](CC(C)C)C(=O)N[C@H](C(=O)N(C)[C@H](C(=O)N1C[C@@H](O)C[C@H]1C(=O)N1C(=O)C=C[C@@H]1C)C(C)C)C(C)OC(C)=O (stereo partly drawn) [Compound 1b],41.8%,55%,128%,,,,
CCCCC(C)CC(C)C(=O)N[C@@H](CC(C)C)C(=O)N[C@H](C(=O)N[C@H](C(=O)N1C[C@@H](O)C[C@H]1C(=O)N1C(=O)C=C[C@@H]1C)C(C)C)C(C)OC(C)=O (stereo partly drawn) [Compound 6a],54.5%,42.8%,141%,,,,
CCCC[C@@H](C)C[C@@H](C)C(=O)N(C)[C@@H](CC(C)C)C(=O)N[C@H](C(=O)N(C)[C@H](C(=O)N1C[C@@H](O)C[C@H]1C(=O)N1C(=O)C=C[C@@H]1C)C(C)C)C(C)OC(C)=O (stereo partly drawn) [Compound 1a],42.5%,53.2%,129%,,,,
CCCCCCCC(=O)N(C)[C@@H](CC(C)C)C(=O)N[C@@H](COC(C)=O)C(=O)N(C)[C@H](C(=O)N1C[C@@H](O)C[C@H]1C(=O)OC)C(C)C [Compound 17a] (Octanoyl-[NMeL]S(Ac)[NMeV][cisHyp]-OMe),53.5%,48.2%,,,,,
CC/C=C\C/C=C\C/C=C\C/C=C\C/C=C\CCCC(=O)N(C)[C@@H](Cc1ccccc1)C(=O)N[C@H](C(=O)N(C)[C@H](C(=O)N1CCC[C@H]1C(=O)N1C(=O)C=CC1=O)C(C)C)C(C)O (stereo partly drawn) [Compound 25a],22.3%,73.1%,,,,,
CCCCCCCC(=O)N(C)[C@@H](CC(C)C)C(=O)N[C@H](C(=O)N(C)[C@@H](CCSC)C(=O)N1C[C@@H](O)C[C@H]1C(=O)N1C(=O)C=CC1=O)C(C)OC(C)=O (stereo partly drawn) [Compound 19a],52.7%,41.8%,,,,,
CC/C=C\C/C=C\C/C=C\C/C=C\C/C=C\CCCC(=O)N(C)[C@@H](CC(C)C)C(=O)N[C@H](C(=O)N(C)[C@H](C(=O)N1C[C@@H](O)C[C@H]1C(=O)N1C(=O)C=CC1=O)C(C)C)C(C)O (stereo partly drawn) [Compound 22a],28.1%,68.7%,,,,,
"ApoA-IV: positive control in the eosinophil apoptosis and CD11b assays, used at 3 μg/mL (protein, UniProt P06727 21-396, looked up) Apolipoprotein A-IV: EVSADQVATVMWDYFSQLSNNAKEAVEHLQKSELTQQLNALFQDKLGEVNTYAGDLQKKLVPFATELHERLAKDSEKLKEEIGKELEELRARLLPHANEVSQKIGDNLRELQQRLEPYADQLRTQVSTQAEQLRRQLTPYAQRMERVLRENADSLQASLRPHADELKAKIDQNVEELKGRLTPYADEFKVKIDQTVEELRRSLAPYAQDTQEKLNHQLEGLTFQMKKNAEELKARISASAEELRQRLAPLAEDVRGNLRGNTEGLQKSLAELGGHLDQQVEEFRRRVEPYGENFNKALVQQMEQLRQKLGPHAGDVEGHLSFLEKDLRDKVNSFFSTFKEKESQDKTLSLPELEQQQEQQQEQQQEQVQMLAPLES",,,,121%,92.4%,29.3%,63.1%
